Measured values reported in patent publication US9980943B2, “Methods of treating muscular dystrophy” (BOARD OF REGENTS OF THE NEVADA SYSTEM OF HIGHER EDUCATION, …, priority 2013, dated 2018).
Where “and” joins values, the source holds several entries; their conditions need not be identical. Equal values may be shown once.

How the values were obtained:
Assay type in all cases: cell-based, mouse
[1] = tested on: α7 integrin (LacZ reporter in α7βgal+/− myoblasts); experiment: Myoblast α7+/LacZ integrin FDG assay (Burkin assay in myoblasts, 96-well); settings: α7+/LacZ myoblasts, 96-well
[2] = tested on: α7 integrin (LacZ reporter in α7+/LacZ myotubes); experiment: Myotube α7 integrin FDG assay (Burkin assay in myotubes, 96-well); settings: myotubes
[3] = tested on: β-galactosidase in CMV-LacZ C2C12 myoblasts; experiment: CMV-LacZ secondary screen in C2C12 myoblasts (β-Gal stabilizing assay); settings: CMV-LacZ C2C12 myoblasts
Summary of the method: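 β-Gal level was the read-out, measured in a clonal C2C12 line expressing LacZ from a CMV promoter. Dose-response curves used six concentrations, 0.5 μM up to 40 μM, with duplicate points.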

[4] = tested on: β-galactosidase in CMV-LacZ C2C12 myotubes; experiment: CMV-LacZ secondary screen in C2C12 myotubes (β-Gal stabilizing assay); settings: C2C12 CMV-LacZ myotubes, fold relative to DMSO
Summary of the method: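 CMV-LacZ C2C12 line (clonal, FDG-screened); myoblasts/myotubes dosed 0.5–40 μM (0.5, 1, 5, 10, 20, 40 μM); n=2 per point; β-gal stabilization read-out.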

Row | SMILES | Burkin Assay in Myoblasts, signal relative to DMSO ([1]; 0.5 uM) | Burkin Assay in Myoblasts, signal relative to DMSO ([1]; 1 uM) | Burkin Assay in Myoblasts, signal relative to DMSO ([1]; 5 uM) | Burkin Assay in Myoblasts, signal relative to DMSO ([1]; 10 uM) | Burkin Assay in Myoblasts, signal relative to DMSO ([1]; 20 uM) | Burkin Assay in Myoblasts, signal relative to DMSO ([1]; 40 uM) | Burkin Assay in Myotubes, α7 integrin LacZ reporter signal relative to DMSO ([2]; 0.5 uM) | Burkin Assay in Myotubes, α7 integrin LacZ reporter signal relative to DMSO ([2]; 1 uM) | Burkin Assay in Myotubes, α7 integrin LacZ reporter signal relative to DMSO ([2]; 5 uM) | Burkin Assay in Myotubes, α7 integrin LacZ reporter signal relative to DMSO ([2]; 10 uM) | Burkin Assay in Myotubes, α7 integrin LacZ reporter signal relative to DMSO ([2]; 20 uM) | Burkin Assay in Myotubes, α7 integrin LacZ reporter signal relative to DMSO ([2]; 40 uM) | CMV-LACZ in Myoblasts (β-galactosidase activity relative to DMSO) ([3]; 0.5 uM) | CMV-LACZ in Myoblasts (β-galactosidase activity relative to DMSO) ([3]; 1 uM) | CMV-LACZ in Myoblasts (β-galactosidase activity relative to DMSO) ([3]; 5 uM) | CMV-LACZ in Myoblasts (β-galactosidase activity relative to DMSO) ([3]; 10 uM) | CMV-LACZ in Myoblasts (β-galactosidase activity relative to DMSO) ([3]; 20 uM) | CMV-LACZ in Myoblasts (β-galactosidase activity relative to DMSO) ([3]; 40 uM) | CMV-LACZ in Myotubes, signal relative to DMSO ([4]; 0.5 uM) | CMV-LACZ in Myotubes, signal relative to DMSO ([4]; 1 uM) | further results
1 | O=C(Nc1ccccc1Cl)C1CCCN1C(=O)OCc1ccccc1 (stereo not drawn) [MLS001030621-01] | 1.004 | 1.158 | 1.15 | 1.161 | 1.001 | 1.01 | 0.9724 | 0.9493 | 0.999 | 0.9429 | 0.7954 | 0.7203 | 0.7081 | 1.0531 | 1.0494 | 1.1844 | 1.0307 | 0.9063 | 0.7844 | 0.7970 | CMV-LACZ in Myotubes, signal relative to DMSO ([4]; 5 uM): 0.9872; CMV-LACZ in Myotubes, signal relative to DMSO ([4]; 10 uM): 1.0546; CMV-LACZ in Myotubes, signal relative to DMSO ([4]; 20 uM): 0.9024; CMV-LACZ in Myotubes, signal relative to DMSO ([4]; 40 uM): 1.0141
2 | CC(C(=O)Nc1ccc(C#N)cc1)N(C)CC(=O)Nc1cccc(F)c1 (stereo not drawn) [MLS001033255-01] | 1.013 | 0.9373 | 1.017 | 1.124 | 0.985 | 0.8279 | 0.91 | 0.8188 | 1.086 | 1.246 | 0.8337 | 1.232 | 0.7590 | 1.0723 | 0.8766 | 1.0219 | 1.1919 | 0.7905 | 1.1038 | 1.1438 | Burkin Assay in Myoblasts, value relative to DMSO ([1]; 0.5 uM): 0.9467; Burkin Assay in Myoblasts, value relative to DMSO ([1]; 1 uM): 0.9407; Burkin Assay in Myoblasts, value relative to DMSO ([1]; 5 uM): 0.9509; Burkin Assay in Myoblasts, value relative to DMSO ([1]; 10 uM): 0.9542; Burkin Assay in Myoblasts, value relative to DMSO ([1]; 20 uM): 0.7962; Burkin Assay in Myoblasts, value relative to DMSO ([1]; 40 uM): 0.799; Burkin Assay in Myotubes (signal relative to DMSO) ([2]; 0.5 uM): 0.9678; Burkin Assay in Myotubes (signal relative to DMSO) ([2]; 1 uM): 0.9526; Burkin Assay in Myotubes (signal relative to DMSO) ([2]; 5 uM): 1.213; Burkin Assay in Myotubes (signal relative to DMSO) ([2]; 10 uM): 0.997; Burkin Assay in Myotubes (signal relative to DMSO) ([2]; 20 uM): 0.8683; Burkin Assay in Myotubes (signal relative to DMSO) ([2]; 40 uM): 1.04; CMV-LACZ in Myotubes, signal relative to DMSO ([4]; 5 uM): 0.9525 and 0.8423; CMV-LACZ in Myotubes, signal relative to DMSO ([4]; 10 uM): 1.0297 and 1.045; CMV-LACZ in Myotubes, signal relative to DMSO ([4]; 20 uM): 0.9930 and 1.013; CMV-LACZ in Myotubes, signal relative to DMSO ([4]; 40 uM): 0.7740 and 1.236
3 | CCc1ccc(S(=O)(=O)NCCOc2cccc3cccnc23)cc1 [MLS001034810-01] | 1.021 | 0.9975 | 1.375 | 1.191 | 0.8996 | 0.8407 | 1.035 | 1.07 | 1.403 | 1.165 | 1 | 0.7593 | 0.9698 | 0.9538 | 1.0948 | 0.9459 | 1.1193 | 0.7030 | 1.1000 | 1.7389 | CMV-LACZ in Myotubes, signal relative to DMSO ([4]; 5 uM): 0.9578; CMV-LACZ in Myotubes, signal relative to DMSO ([4]; 10 uM): 1.0965; CMV-LACZ in Myotubes, signal relative to DMSO ([4]; 20 uM): 1.0578; CMV-LACZ in Myotubes, signal relative to DMSO ([4]; 40 uM): 1.1344
